Patent publication US7553826B2, “Cytarabine monophosphate prodrugs” (Metabasis Therapeutics, Inc., priority 2002, dated 2009)
Converted amounts (≈) assume the structure as drawn.

Key:
[1] = Single IP injection liver targeting in rat; type: in vivo; conditions: 100 mg CE/kg single IP injection
[2] = Rat acute toxicity, 24 hr continuous i.v. infusion; type: in vivo; conditions: rats, 2000 mg/kg/24 hrs continuous i.v. infusion
Procedure: Male and female Simonsen rats were instrumented for continuous infusion as described in Example C. On the day of treatment, the rats were hooked up to the constant infusion tether and given free access to food and water. Three male and three female rats were treated Compound A at a dose of 2000 mg/kg/24 hrs using a flow rate of 2.08 ml/kg/hr. Compound A was dissolved at 42.5 mg/ml in water and the pH adjusted to 4 with 1M HCl. The osmolarity was adjusted to ˜300 mOsm using 5M NaCl. As a control, 2 male rats were infused with pH 4 saline for the same period of time. The appearance and disposition of the rats was monitored regularly and notes about their behavior recorded every 1-3 hrs during the working day.
The animals were anesthetized in a chamber supplied via a Fluotec 3 vaporizer with 5% isoflurane (Abbot Laboratories, NDC 0074-3292-02) in 100% oxygen at a flow rate of 1.5 to 2 liters per minute. […] The blood from each animal was divided between K2-EDTA-containing microtainer tubes (Becton Dickinson, 36/5974) and microtainer tubes with gel separators for serum (Becton Dickinson, 36/5956) and lithium heparin for plasma collection (Becton Dickinson, 36/5958). If possible, urine was removed from the bladder using a 23-gauge needle attached to a 3 cc syringe. Tissue samples were collected in the following order: liver, kidneys, small intestine, bladder and bone marrow. The small intestine was divided into three equal portions to represent samples from the duodenum, jejunum and ileum; fecal matter was manually removed by gentle sliding pressure using a blunt forceps. From each tissue, a portion was placed in 10% buffered formalin for histology.
For cell counting, […] of EDTA-treated blood or PBS-suspended bone marrow flush was mixed with 450 μL or 950 μL, respectively, nuclear staining solution containing 0.19 mg/mL crystal violet (Sigma # C-1658, lot 112H3660) in 1 M acetic acid, and incubated at room temperature for at least 5 min. After brief vortexing, a 10 μl aliquot of the mixture was placed in a hemocytometer and cells were counted using a Nikon Optiphot-2 microscope. The blood samples were counted under a 40× objective to evaluate the number of mononuclear cells (lymphocytes and monocytes) and polymorphonuclear cells (PMN, including granulocytes of the neutrophil, eosinophil and basophil type). Nucleated bone marrow cells were counted under a 10× objective.
EDTA-treated blood samples were submitted to LabCorp (San Diego, Calif.) for hematology analysis including erythrocyte and platelet numbers, hemoglobin, and hematocrit. Serum chemistry analysis was also performed by LabCorp. […]

Solubility = type: physicochemical
Procedure: With each of the three buffer systems, saturating solutions of Compound A and Compound B were prepared as follows. […] The resultant vials were sealed and equilibrated by tumbling at 25° C. for a minimum of 24 h. At the end of the incubation period, prodrug that was not in solution was removed from the samples by filtration through a 0.45 μm pore size nylon syringe filter. These diluted samples were assayed by the HPLC method of example E.

Aqueous stability = type: physicochemical; conditions: 100 mM citrate, pH5.0, 37° C, 50 μM
Procedure: Diluted solutions (50 μM) were incubated at 37° C. in a Fisher Scientific dry bath incubator (catalog # 11-718-2) with samples collected every 24 hours and stored at −80° C. Plasma samples (100 μL) were quenched with 1 mL of acetonitrile. […] Samples were resuspended in 120 μL of mobile phase buffer before HPLC injection.
Samples were analyzed on an HP1090 or HP1100 (Hewlett Packard) HPLC using a C-18 Alltech Econosphere column, 150 mm×4.6 mm (catalog # 70065), with a C-18 Alltech Econosphere guard column, 7.5 mm×4.6 mm (catalog # 96121). Samples were eluted with a methanol gradient: 0% for 5 minutes, then increasing to 10% at 10 minutes, 30% at 20 minutes, and 60% at 25 minutes. The column was allowed to equilibrate in 0% methanol for 10 minutes before the next injection. The flow rate was 1 mL/minute with a column temperature of 40° C. Prodrugs eluted around 19.5 minutes and were monitored by UV absorbance at 280 nm. For prodrugs in aqueous conditions, the same method was employed except the methanol gradient was as follows: 0% for 5 minutes, increasing to 10% at 10 minutes, and 30% at 20 minutes with prodrug eluting around 20 minutes.

## Nc1ccn([C@@H]2O[C@H](CO[P@@]3(=O)OCC[C@@H](c4ccncc4)O3)[C@@H](O)[C@@H]2O)c(=O)n1 [Compound A, 2(1H)-Pyrimidinone, 4-amino-1-[5-O-[(2R,4S)-2-oxido-4-(4-pyridinyl)-1,3,2-dioxaphosphorinan-2-yl]-β-D-arabinofuranosyl]]
[1]
  LTI (Liver/plasma): 19.2 nmol/g/μM
  Liver araCTP Peak @ 1 hr: 267 nmol/g
[2]
  serum chemistry and hematology parameters: generally within normal ranges
  serum triglycerides levels: outside the normal range
[2]; 24 hr treatment
  overt toxicity: no overt toxicity was noted
[2]; 24 hrs
  tolerability: well tolerated
Solubility; 0.5 M Pi pH 8.0 buffer, 25° C
  solubility: 2.9 mg/mL (≈ 6.59 mM)
Solubility; 0.5 M citrate pH 4.0, 25° C
  solubility: 45.8 mg/mL (≈ 104 mM)
Solubility; 0.5 M citrate pH 7.0, 25° C
  solubility: 2.6 mg/mL (≈ 5.9 mM)
Aqueous stability
  t90 in aqueous solution: 2 days
